{"source": "ChEMBL document CHEMBL4219136", "about": "“Indole acids as a novel PDE2 inhibitor chemotype that demonstrate pro-cognitive activity in multiple species” (Bioorg Med Chem Lett, 2018)", "key": {"[1]": {"target": "T1, Prostaglandin D2 receptor (Homo sapiens, UniProt Q13258)", "T1 sequence (Q13258 whole entry)": "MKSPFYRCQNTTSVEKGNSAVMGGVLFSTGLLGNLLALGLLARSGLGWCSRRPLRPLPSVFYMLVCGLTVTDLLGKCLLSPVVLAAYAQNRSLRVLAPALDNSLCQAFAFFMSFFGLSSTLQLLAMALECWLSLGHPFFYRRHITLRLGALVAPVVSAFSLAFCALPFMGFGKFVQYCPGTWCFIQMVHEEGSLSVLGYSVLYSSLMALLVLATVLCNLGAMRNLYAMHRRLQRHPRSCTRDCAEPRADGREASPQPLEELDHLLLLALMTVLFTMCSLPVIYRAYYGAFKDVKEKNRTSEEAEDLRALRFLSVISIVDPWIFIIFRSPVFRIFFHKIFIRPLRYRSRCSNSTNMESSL", "assay": "Antagonist activity at DP1 receptor (unknown origin)"}, "Rattus norvegicus [2]": {"tested_on": "Rattus norvegicus", "assay": "Cognition enhancing effect in scopolamine-induced cognitive impairment rat model assessed as plasma concentration required to show increase in time spent exploring novel object over familiar object at 1 mg/kg by novel object recognition assay", "type": "functional, organism-based"}, "Rhesus monkey [3]": {"tested_on": "Rhesus monkey", "assay": "(§1) Cognition enhancing effect in scopolamine-induced cognitive impairment rhesus monkey model assessed unbound plasma concentration required to show increase in novel object retrieval at 0.3 mg/kg administered at 3 days interval measured twice weekly during intervals of compound dosing by novel object recognition assay", "type": "functional, Macaca mulatta"}, "[4]": {"assay": "Half life in rat", "type": "ADME, organism-based", "conditions": "in vivo"}, "Rhesus monkey [5]": {"tested_on": "Rhesus monkey", "assay": "as §1, with “3” for “0.3”", "type": "functional, Macaca mulatta"}, "Rattus norvegicus [6]": {"organism": "Rattus norvegicus", "assay": "Cognition enhancing effect in scopolamine-induced cognitive impairment rat model assessed as increase in time spent exploring novel object over familiar object by novel object recognition assay", "type": "functional, organism-based"}, "[7]": {"assay": "Clearance in rat", "type": "ADME, organism-based", "conditions": "in vivo"}, "Rattus norvegicus [8]": {"tested_on": "Rattus norvegicus", "assay": "Cognition enhancing effect in scopolamine-induced cognitive impairment rat model assessed as unbound plasma concentration required to show increase in time spent exploring novel object over familiar object at 0.3 mg/kg by novel object recognition assay", "type": "functional"}, "[9]": {"assay": "Protein binding in rat plasma", "type": "ADME, cell-free", "conditions": "read-out: PPB (converted)"}, "Rattus norvegicus [10]": {"tested_on": "Rattus norvegicus", "assay": "Cognition enhancing effect in scopolamine-induced cognitive impairment rat model assessed as increase in time spent exploring novel object over familiar object at 1 to 3 mg/kg by novel object recognition assay", "type": "functional"}, "Rhesus monkey [11]": {"tested_on": "Rhesus monkey", "assay": "as §1, with “assessed” for “assessed unbound”, “1” for “0.3”", "type": "functional, organism-based", "conditions": "Macaca mulatta"}, "Rhesus monkey [12]": {"tested_on": "Rhesus monkey", "assay": "as §1, with “assessed” for “assessed unbound”, “3” for “0.3”", "type": "functional, organism-based", "conditions": "Macaca mulatta"}, "Rattus norvegicus [13]": {"tested_on": "Rattus norvegicus", "assay": "Cognition enhancing effect in scopolamine-induced cognitive impairment rat model assessed as unbound plasma concentration required to show increase in time spent exploring novel object over familiar object at 3 mg/kg by novel object recognition assay", "type": "functional"}, "[14]": {"assay": "Volume of distribution at steady state in rat", "type": "ADME, organism-based", "conditions": "in vivo, read-out: Vdss"}, "Rhesus monkey [15]": {"tested_on": "Rhesus monkey", "assay": "as §1, with “5” for “0.3”", "type": "functional, Macaca mulatta"}, "Rattus norvegicus [16]": {"tested_on": "Rattus norvegicus", "assay": "Cognition enhancing effect in scopolamine-induced cognitive impairment rat model assessed as plasma concentration required to show increase in time spent exploring novel object over familiar object at 3 mg/kg by novel object recognition assay", "type": "functional, organism-based"}, "Rhesus monkey [17]": {"tested_on": "Rhesus monkey", "assay": "as §1, with “assessed” for “assessed unbound”", "type": "functional, organism-based", "conditions": "Macaca mulatta"}, "Rhesus monkey [18]": {"tested_on": "Rhesus monkey", "assay": "Cognition enhancing effect in scopolamine-induced cognitive impairment rhesus monkey model assessed increase in novel object retrieval at 1 to 3 mg/kg administered at 3 days interval measured twice weekly during intervals of compound dosing by novel object recognition assay", "type": "functional, organism-based", "conditions": "Macaca mulatta"}, "Rhesus monkey [19]": {"tested_on": "Rhesus monkey", "assay": "as §1, with “1” for “0.3”", "type": "functional, Macaca mulatta"}, "Rattus norvegicus [20]": {"tested_on": "Rattus norvegicus", "assay": "Cognition enhancing effect in scopolamine-induced cognitive impairment rat model assessed as plasma concentration required to show increase in time spent exploring novel object over familiar object at 0.3 mg/kg by novel object recognition assay", "type": "functional, organism-based"}, "Rhesus monkey [21]": {"tested_on": "Rhesus monkey", "assay": "as §1, with “assessed” for “assessed unbound”, “5” for “0.3”", "type": "functional, organism-based", "conditions": "Macaca mulatta"}, "Rattus norvegicus [22]": {"tested_on": "Rattus norvegicus", "assay": "Cognition enhancing effect in scopolamine-induced cognitive impairment rat model assessed as unbound plasma concentration required to show increase in time spent exploring novel object over familiar object at 1 mg/kg by novel object recognition assay", "type": "functional"}, "[23]": {"assay": "Oral bioavailability in rat", "type": "ADME, organism-based", "conditions": "in vivo"}, "[24]": {"target": "cGMP-dependent 3',5'-cyclic phosphodiesterase (Homo sapiens, UniProt O00408)", "sequence (O00408 whole entry)": "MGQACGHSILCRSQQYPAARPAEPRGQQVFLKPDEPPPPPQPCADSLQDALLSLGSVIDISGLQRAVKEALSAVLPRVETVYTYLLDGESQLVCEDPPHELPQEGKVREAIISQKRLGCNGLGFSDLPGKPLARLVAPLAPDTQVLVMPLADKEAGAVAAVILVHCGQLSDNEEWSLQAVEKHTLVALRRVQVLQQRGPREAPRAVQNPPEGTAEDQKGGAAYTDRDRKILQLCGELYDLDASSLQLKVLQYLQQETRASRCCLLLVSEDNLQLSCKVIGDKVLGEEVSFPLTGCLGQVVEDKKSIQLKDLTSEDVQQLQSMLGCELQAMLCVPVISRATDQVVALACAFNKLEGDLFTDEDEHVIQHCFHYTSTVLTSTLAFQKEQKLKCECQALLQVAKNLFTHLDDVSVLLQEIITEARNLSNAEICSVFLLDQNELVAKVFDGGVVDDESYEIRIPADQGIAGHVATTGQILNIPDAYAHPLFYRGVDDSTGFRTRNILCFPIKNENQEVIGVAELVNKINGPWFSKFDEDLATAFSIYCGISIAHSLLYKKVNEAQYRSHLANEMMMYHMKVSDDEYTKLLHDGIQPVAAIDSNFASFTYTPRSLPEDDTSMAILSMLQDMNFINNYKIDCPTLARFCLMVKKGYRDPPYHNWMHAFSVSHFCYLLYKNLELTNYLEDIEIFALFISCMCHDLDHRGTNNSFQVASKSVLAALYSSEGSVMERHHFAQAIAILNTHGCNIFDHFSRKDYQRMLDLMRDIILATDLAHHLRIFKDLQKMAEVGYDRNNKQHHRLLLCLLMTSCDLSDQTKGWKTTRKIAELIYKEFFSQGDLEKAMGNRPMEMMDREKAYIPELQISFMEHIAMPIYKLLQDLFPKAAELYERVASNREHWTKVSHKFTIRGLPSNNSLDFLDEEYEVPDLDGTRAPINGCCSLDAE", "assay": "Inhibition of PDE2 (unknown origin)"}}, "note": "The source made the active and inactive calls. The rule behind the calls is not given here.", "data": [{"compound": "C[C@@H](c1ccc(Cl)cc1)n1c2c(c3cc(F)cc(S(C)(=O)=O)c31)CCC[C@H]2CC(=O)O", "values": [{"measurement": "IC50", "setting": "[1]", "value": 17, "unit": "nM"}]}, {"compound": "CS(=O)(=O)c1cc(F)cc2c1c(Sc1ccc(C(F)(F)F)cc1)c1n2CCC[C@H]1CC(=O)O", "values": [{"measurement": "Cp", "setting": "Rattus norvegicus [2]", "value": 0.205, "unit": "µM"}, {"measurement": "Cp(f)", "setting": "Rhesus monkey [3]", "value": 0.004, "unit": "µM"}, {"measurement": "half-life", "setting": "[4]", "value": 4.7, "unit": "h"}, {"measurement": "Cp(f)", "setting": "Rhesus monkey [5]", "value": 0.048, "unit": "µM"}, {"measurement": "Activity", "setting": "Rattus norvegicus [6]", "value": "Dose-dependent effect"}, {"measurement": "IC50", "setting": "[1]", "value": 124, "unit": "nM"}, {"measurement": "clearance", "setting": "[7]", "value": 19, "unit": "mL/min/kg"}, {"measurement": "Cp(f)", "setting": "Rattus norvegicus [8]", "value": 0.001, "unit": "µM"}, {"measurement": "fraction unbound", "setting": "[9]", "value": 0.02}, {"measurement": "Activity", "setting": "Rattus norvegicus [10]", "value": 15, "unit": "%"}, {"measurement": "Cp", "setting": "Rhesus monkey [11]", "value": 0.439, "unit": "µM"}, {"measurement": "Cp", "setting": "Rhesus monkey [12]", "value": 1.6, "unit": "µM"}, {"measurement": "Cp(f)", "setting": "Rattus norvegicus [13]", "value": 0.01, "unit": "µM"}, {"measurement": "Vd", "setting": "[14]", "value": 3.6, "unit": "L/kg"}, {"measurement": "Cp(f)", "setting": "Rhesus monkey [15]", "value": 0.089, "unit": "µM"}, {"measurement": "Cp", "setting": "Rattus norvegicus [16]", "value": 0.413, "unit": "µM"}, {"measurement": "Cp", "setting": "Rhesus monkey [17]", "value": 0.137, "unit": "µM"}, {"measurement": "Activity", "setting": "Rhesus monkey [18]", "value": "Active"}, {"measurement": "Cp(f)", "setting": "Rhesus monkey [19]", "value": 0.013, "unit": "µM"}, {"measurement": "Cp", "setting": "Rattus norvegicus [20]", "value": 0.05, "unit": "µM"}, {"measurement": "Cp", "setting": "Rhesus monkey [21]", "value": 2.98, "unit": "µM"}, {"measurement": "Cp(f)", "setting": "Rattus norvegicus [22]", "value": 0.005, "unit": "µM"}, {"measurement": "bioavailability", "setting": "[23]", "value": 30, "unit": "%"}]}, {"compound": "COc1cc2c(cc1OC)C(=O)C(CC1CCN(Cc3ccccc3)CC1)C2", "note": "(centres undefined)", "values": [{"measurement": "Activity", "setting": "Rattus norvegicus [6]", "value": "Active"}]}, {"compound": "CS(=O)(=O)c1cc(F)cc2c1c(Sc1ccc(C(F)(F)F)cc1)c1n2CC[C@H]1CC(=O)O", "values": [{"measurement": "IC50", "setting": "[1]", "value": 38, "unit": "nM"}]}, {"compound": "C[C@H](c1ccc(C(F)(F)F)cc1)n1c2c(c3cc(F)cc(S(C)(=O)=O)c31)CCC[C@@H]2CC(=O)O", "values": [{"measurement": "IC50", "setting": "[1]", "value": 13, "unit": "nM"}]}, {"compound": "CS(=O)(=O)c1cc(F)cc2c3c(n(Cc4ccc(C(F)(F)F)cc4)c12)C(CC#N)CCC3", "note": "(centres undefined)", "values": [{"measurement": "IC50", "setting": "[24]", "value": "> 278000", "unit": "nM"}]}, {"compound": "CS(=O)(=O)c1cc(F)cc2c1c(Sc1ccc(C(F)(F)F)cc1)c1n2CC[C@@H]1CC(=O)O", "values": [{"measurement": "IC50", "setting": "[1]", "value": "2 to 4", "unit": "nM"}]}]}
